Assay results: US20070298105A1, “METHODS OF TREATING CONDITIONS BY SUSTAINED RELEASE ADMINISTRATION OF BENZIMIDAZOLE DERIVATIVES” (priority 2006, published 2007)
Read-outs that look alike come from different tables or passages of the source.

Key:
[1] = Colonic intubation study: plasma pharmacokinetics of rabeprazole and esomeprazole; assay type: in vivo, human; settings: male, human, plasma, po, 40 mg; for AUC(0-inf): read-out: AUCinf (mean)
Experimental: A single-dose, open-label, partially randomized, five-treatment, five-period, crossover pilot study was performed in healthy males to determine relative pharmacokinetics of rabeprazole, and comparators when dosed either orally or colonically. The study was a single dose study with blood sampling up to 24 hours following initiation. […] Colonic dosing occurred using a nasoenteral tube. Treatment C was a single 20 mg dose of rabeprazole sodium oral enteric coated tablets dosed orally. Treatment D was placebo (200 mL of water) dosed orally. […] For subjects whose apparent elimination rate constant [k] could not be properly determined, the AUC to infinity [AUCinf]) was calculated based on the median apparent elimination constant [k] of the subjects with available t1/2 values in the same treatment period. […] The intragastric pH profile were determined.

intragastric pH = assay: Colonic intubation study: intragastric pH profile (percent of time with pH >4); assay type: in vivo, human; settings: for Mean percent of time with pH >4: TRT E: esomeprazole 40 mg oral tablet
Experimental: A single-dose, open-label, partially randomized, five-treatment, five-period, crossover pilot study was performed in healthy males to determine relative pharmacokinetics of rabeprazole, and comparators when dosed either orally or colonically. The study was a single dose study with blood sampling up to 24 hours following initiation.
Treatments A and B were rabeprazole sodium solution dosed to provide 30 and 60 mg, respectively, over 20 hours in the transverse colon of the subjects. Colonic dosing occurred using a nasoenteral tube. Treatment C was a single 20 mg dose of rabeprazole sodium oral enteric coated tablets dosed orally. Treatment D was placebo (200 mL of water) dosed orally.
The intragastric pH profile was analyzed based on the percentage of time that the intragastric pH was above 4, which was calculated for the full 24 hours. In addition, the mean pH value over 5 time intervals of 6 hours each during the 30-hr sampling time was also estimated.

[2] = TRT E: esomeprazole 40 mg oral tablet, N = 19
[3] = TRT E: esomeprazole 40 mg oral tablet, subset N = 14

AUC(0-t) [1, 2]: 1870 ng·h/mL
AUC(0-inf) [1, 2]: 1910 ng·h/mL
half-life ([1]; TRT E: esomeprazole 40 mg oral tablet, N = 19, read-out: t1/2 (median) (converted)): 48 min
Cmax ([1]; TRT E: esomeprazole 40 mg oral tablet, single dose, healthy males, N = 19): 727 ng/mL
AUC(0-t) [1, 3]: 2270 ng·h/mL
Cmax [1, 3]: 800 ng/mL
AUC(0-inf) [1, 3]: 2310 ng·h/mL
half-life ([1]; oral administration of 40 mg esomeprazole, read-out: median half-life (converted)): ~60 min
Structure (SMILES): COc1ccc2nc([S@@+]([O-])Cc3ncc(C)c(OC)c3C)[nH]c2c1 [Esomeprazole]
Mean percent of time with pH >4 (intragastric pH; 0-6 hr (10 am-4 pm), N = 19): 57.0%
Mean percent of time with pH >4 (intragastric pH; 0-6 hr (10 am-4 pm), subset N = 14): 64.3%
Mean percent of time with pH >4 (intragastric pH; 6-12 hr (4 pm-10 pm), N = 19): 76.3%
Mean percent of time with pH >4 (intragastric pH; 6-12 hr (4 pm-10 pm), subset N = 14): 87.0%
Mean percent of time with pH >4 (intragastric pH; 12-18 hr (10 pm-4 am), N = 19): 36.6%
Mean percent of time with pH >4 (intragastric pH; 12-18 hr (10 pm-4 am), subset N = 14): 42.8%
Mean percent of time with pH >4 (intragastric pH; 18-24 hr (4 am-10 am), N = 19): 56.0%
Mean percent of time with pH >4 (intragastric pH; 18-24 hr (4 am-10 am), subset N = 14): 60.1%
Mean percent of time with pH >4 (intragastric pH; 24-30 hr (10 am-4 pm), N = 19): 49.5%
Mean percent of time with pH >4 (intragastric pH; 24-30 hr (10 am-4 pm), subset N = 14): 57.1%
Mean percent of time with pH >4 (intragastric pH; 24-hr average, N = 19): 56.5%
Mean percent of time with pH >4 (intragastric pH; 24-hr average, N = 19, listed as esomeprazole): 57%
Mean percent of time with pH >4 (intragastric pH; 24-hr average, subset N = 14): 63.5%
effect on percentage of time with pH >4 compared to placebo (intragastric pH; first 6 hours of treatment, esomeprazole treatment): significant increase
